{"source": "patent US20220387377A1", "about": "“(+)-CIS TETRAHYDROCANNABINOL ((+)-CIS-THC) FOR USE AS A MEDICAMENT” (GW Research Limited, priority 2019, published 2022)", "key": {"[1]": {"test_system": "withdrawal threshold on hot plate set at 52° C.", "assay": "Mouse hotplate test (anti-nociception)", "assay_type": "in vivo", "experimental": "The efficacy of (+)-cis-THC was tested in a mouse model of pain, the hotplate test.\nMice underwent a minimum habituation period of 7 days prior to study commencement. Naïve mice were acclimatised to the procedure room in their home cages, with food and water available ad libitum.\nAnimals were treated with either treatment vehicle, (+)-cis-THC at 1,15, 50,100, 125 and 150 mg/kg at 10 ml/kg i.p. or Morphine 10 mg/kg or Morphine vehicle (Saline) at 10 ml/kg i.p.\nAnimals were placed onto a hot plate set at 52° C. and time to withdrawal threshold (first response of lifting, licking front or hind paws or trying to escape) was taken at 1-hour post treatment, or at 0.5 hour after the positive control.\nAnimals were culled by a schedule 1 method, immediately after the measurement.\nData were analysed by comparing withdrawal thresholds back to Vehicle treated group"}, "[2]": {"conditions": "depending on the assay; cited from earlier work"}, "[3]": {"test_system": "tonic hind limb convulsions induced by MES", "assay": "Mouse supramaximal electroshock seizure (MES) test", "assay_type": "in vivo", "set-up": "key to Significance of inhibition of tonic hindlimb seizures vs vehicle (Fisher's test): * p < 0.05; *** p < 0.001; ns: Ns: non significantly different from vehicle control (Fisher's test)", "experimental": "The efficacy of (+)-cis-THC was tested in a mouse model of seizure, the maximal electroshock (MES) test.\nMice were administered MES (30 mA, rectangular current: 0.6 ms pulse width, 0.2 s duration, 50 Hz) via corneal electrodes connected to a constant current shock generator (Ugo Basile: type 7801) to reliably produce tonic hind limb convulsions. The number of tonic convulsions was recorded.\nSixteen mice were studied per group. The test was performed blind.\nThe test substance, (+)-cis-THC, was evaluated at 4 doses (10, 50, 100 and 150 mg/kg), administered i.p. 60 minutes before MES, and compared with a vehicle control group (administered under the same experimental conditions).\nValproate (positive control) was administered at 250 mg/kg i.p. 30 minutes before MES, was used as a reference substance and was compared with a vehicle group (administered i.p. 60 minutes before MES).\nData was analysed by comparing treated groups with the appropriate vehicle control using 2-tailed Fisher's Exact Probability tests (p<0.05 considered significant)."}, "[4]": {"conditions": "10 mg/kg I.P., 0.5 hour after treatment, hot plate 52° C."}, "[5]": {"conditions": "50 mg/kg I.P., 60 mins before MES"}, "[6]": {"conditions": "100 mg/kg I.P., 60 mins before MES"}, "[7]": {"conditions": "150 mg/kg I.P., 60 mins before MES"}, "[8]": {"conditions": "250 mg/kg I.P., 30 mins before MES"}}, "note": "Entries after “also recorded” stand apart in the source; their conditions may differ.", "data": [{"compound": "CN1CC[C@]23c4c5ccc(O)c4O[C@H]2[C@@H](O)C=C[C@H]3[C@H]1C5", "note": "[Morphine, reference compound]", "values": [{"measurement": "Significance of withdrawal threshold vs vehicle control", "setting": "[1]; [4]", "value": "*** (*** p < 0.001 significant when compared to the corresponding vehicle control (Fisher's test).)"}, {"measurement": "Withdrawal threshold (sec) Mean +/− SEM", "setting": "[1]; [4]", "value": "17.48 ± 1.08", "unit": "s"}, {"measurement": "Withdrawal threshold (sec) Mean +/− SEM", "setting": "[1]; 10 mg/kg I.P., 0.5 hour after treatment, hot plate 52° C., listed as morphine", "value": "significant increase in the withdrawal threshold"}]}, {"compound": "CCCCCc1cc(O)c2c(c1)OC(C)(C)[C@@H]1CCC(C)=C[C@@H]21", "note": "[(−)-trans-THC, (−)-trans-delta-9-tetrahydrocannabinol]", "values": [{"measurement": "Potency relative to the (+)-trans-THC isomer", "setting": "[2]", "value": "6-100 times"}]}, {"compound": "CCCCCc1cc(O)c2c(c1)OC(C)(C)[C@@H]1CCC(C)=C[C@H]21", "note": "(relative stereo) [(+)-cis-THC, (+)-cis-delta-9-tetrahydrocannabinol]", "values": [{"measurement": "Significance of inhibition of tonic hindlimb seizures vs vehicle (Fisher's test)", "setting": "[3]; 10 mg/kg I.P., 60 mins before MES", "value": "ns"}, {"measurement": "% change from vehicle in number of tonic clonic seizures after MES", "setting": "[3]; [5]", "value": 18.8, "unit": "%"}, {"measurement": "Significance of inhibition of tonic hindlimb seizures vs vehicle (Fisher's test)", "setting": "[3]; [5]", "value": "ns"}, {"measurement": "% change from vehicle in number of tonic clonic seizures after MES", "setting": "[3]; [6]", "value": 25.0, "unit": "%"}, {"measurement": "Significance of inhibition of tonic hindlimb seizures vs vehicle (Fisher's test)", "setting": "[3]; [6]", "value": "ns"}, {"measurement": "% change from vehicle in number of tonic clonic seizures after MES", "setting": "[3]; [7]", "value": 37.5, "unit": "%"}, {"measurement": "Significance of inhibition of tonic hindlimb seizures vs vehicle (Fisher's test)", "setting": "[3]; [7]", "value": "* (* p < 0.05)"}, {"measurement": "Anti-convulsant effect in the MES model (overall)", "setting": "[3]; 10, 50, 100 and 150 mg/kg i.p. 60 minutes before MES", "value": "dose-related increase in the percentage change; also recorded: significant anti-convulsant effect"}, {"measurement": "Withdrawal threshold (sec) Mean +/− SEM", "setting": "[1]; 1 mg/kg I.P., 1-hour post treatment, hot plate 52° C.", "value": "10.23 ± 0.64", "unit": "s"}, {"measurement": "Withdrawal threshold (sec) Mean +/− SEM", "setting": "[1]; 15 mg/kg I.P., 1-hour post treatment, hot plate 52° C.", "value": "9.96 ± 0.73", "unit": "s"}, {"measurement": "Withdrawal threshold (sec) Mean +/− SEM", "setting": "[1]; 50 mg/kg I.P., 1-hour post treatment, hot plate 52° C.", "value": "9.80 ± 0.80", "unit": "s"}, {"measurement": "Withdrawal threshold (sec) Mean +/− SEM", "setting": "[1]; 100 mg/kg I.P., 1-hour post treatment, hot plate 52° C.", "value": "10.67 ± 0.77", "unit": "s"}, {"measurement": "Withdrawal threshold (sec) Mean +/− SEM", "setting": "[1]; 125 mg/kg I.P., 1-hour post treatment, hot plate 52° C.", "value": "11.18 ± 1.18", "unit": "s"}, {"measurement": "Withdrawal threshold (sec) Mean +/− SEM", "setting": "[1]; 150 mg/kg I.P., 1-hour post treatment, hot plate 52° C.", "value": "11.68 ± 0.52", "unit": "s"}, {"measurement": "Anti-nociceptive effect (withdrawal threshold compared to vehicle)", "setting": "[1]; all doses tested, 1 to 150 mg/kg i.p.", "value": "none of the doses tested produced a significant difference; also recorded: no anti-nociceptive effect"}]}, {"compound": "CCCC(CCC)C(=O)O", "note": "[Valproate, reference compound]", "values": [{"measurement": "% change from vehicle in number of tonic clonic seizures after MES", "setting": "[3]; [8]", "value": 100.0, "unit": "%"}, {"measurement": "Significance of inhibition of tonic hindlimb seizures vs vehicle (Fisher's test)", "setting": "[3]; [8]", "value": "*** (*** p < 0.001)"}, {"measurement": "% change from vehicle in number of tonic clonic seizures after MES", "setting": "[3]; 250 mg/kg I.P., 30 mins before MES, listed as valproate", "value": 100, "unit": "%"}]}]}
